Data from US20090035784A1 (priority 2004, published 2009).
Entries after “also recorded” stand apart in the source; their conditions may differ. Where two headings read alike, the source gives them in different places.

What was measured:
Assay type in all cases: cell-based
NPC1L1 [1] = target: T1, NPC1L1 (Homo sapiens, UniProt Q9UHC9, T1073A)
T1 construct: expressed in transfected cells; host or cells: Huh7-derived cells; the L1 3+ line (NPC1L1-overexpressing clone 3) is proposed for screening
T1 sequence (Q9UHC9 22-1359 T1073A): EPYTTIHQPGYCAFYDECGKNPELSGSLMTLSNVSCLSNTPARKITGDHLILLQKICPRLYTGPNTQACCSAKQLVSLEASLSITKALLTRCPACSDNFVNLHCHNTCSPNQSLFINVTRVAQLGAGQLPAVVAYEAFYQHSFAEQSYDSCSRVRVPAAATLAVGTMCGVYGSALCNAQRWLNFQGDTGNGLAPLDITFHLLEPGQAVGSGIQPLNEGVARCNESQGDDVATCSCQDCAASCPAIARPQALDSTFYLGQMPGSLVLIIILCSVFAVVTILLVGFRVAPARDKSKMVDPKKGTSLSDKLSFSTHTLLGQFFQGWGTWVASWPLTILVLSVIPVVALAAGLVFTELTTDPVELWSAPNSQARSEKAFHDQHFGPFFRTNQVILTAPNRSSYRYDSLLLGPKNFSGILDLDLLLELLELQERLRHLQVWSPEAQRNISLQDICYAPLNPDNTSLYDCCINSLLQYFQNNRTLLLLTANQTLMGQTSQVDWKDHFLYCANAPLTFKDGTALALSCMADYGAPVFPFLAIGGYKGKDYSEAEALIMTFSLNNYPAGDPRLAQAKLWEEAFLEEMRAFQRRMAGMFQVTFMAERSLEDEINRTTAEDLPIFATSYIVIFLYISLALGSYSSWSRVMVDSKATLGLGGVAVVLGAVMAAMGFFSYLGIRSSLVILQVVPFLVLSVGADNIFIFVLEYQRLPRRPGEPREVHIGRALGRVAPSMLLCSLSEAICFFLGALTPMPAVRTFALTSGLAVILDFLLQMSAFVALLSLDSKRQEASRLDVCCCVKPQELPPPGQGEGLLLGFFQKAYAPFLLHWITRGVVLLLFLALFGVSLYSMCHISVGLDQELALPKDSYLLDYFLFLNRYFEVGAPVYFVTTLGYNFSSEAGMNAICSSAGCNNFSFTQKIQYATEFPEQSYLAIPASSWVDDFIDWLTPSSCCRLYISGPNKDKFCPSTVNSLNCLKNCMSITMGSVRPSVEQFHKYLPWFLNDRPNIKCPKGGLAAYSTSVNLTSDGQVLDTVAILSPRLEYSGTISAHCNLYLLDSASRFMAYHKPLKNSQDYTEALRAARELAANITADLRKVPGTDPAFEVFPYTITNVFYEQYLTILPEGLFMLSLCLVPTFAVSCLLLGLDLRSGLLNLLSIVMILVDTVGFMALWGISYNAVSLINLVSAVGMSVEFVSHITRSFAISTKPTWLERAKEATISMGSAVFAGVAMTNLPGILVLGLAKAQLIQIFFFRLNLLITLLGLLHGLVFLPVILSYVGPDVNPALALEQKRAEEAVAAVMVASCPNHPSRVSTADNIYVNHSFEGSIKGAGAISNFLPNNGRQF

NPC1L1 [2] = target: T1, NPC1L1; remark: listed apart in the source
NPC1 = target: T2, NPC1 (Homo sapiens, UniProt O15118); test: Lysosomal cholesterol storage in normal human fibroblasts treated with inhibitor; details: normal human fibroblasts incubated overnight, fluorescent cholesterol probe, FIG. 6 and 7
T2 construct: endogenous in cells; host or cells: normal human fibroblasts
T2 sequence (O15118 23-1278): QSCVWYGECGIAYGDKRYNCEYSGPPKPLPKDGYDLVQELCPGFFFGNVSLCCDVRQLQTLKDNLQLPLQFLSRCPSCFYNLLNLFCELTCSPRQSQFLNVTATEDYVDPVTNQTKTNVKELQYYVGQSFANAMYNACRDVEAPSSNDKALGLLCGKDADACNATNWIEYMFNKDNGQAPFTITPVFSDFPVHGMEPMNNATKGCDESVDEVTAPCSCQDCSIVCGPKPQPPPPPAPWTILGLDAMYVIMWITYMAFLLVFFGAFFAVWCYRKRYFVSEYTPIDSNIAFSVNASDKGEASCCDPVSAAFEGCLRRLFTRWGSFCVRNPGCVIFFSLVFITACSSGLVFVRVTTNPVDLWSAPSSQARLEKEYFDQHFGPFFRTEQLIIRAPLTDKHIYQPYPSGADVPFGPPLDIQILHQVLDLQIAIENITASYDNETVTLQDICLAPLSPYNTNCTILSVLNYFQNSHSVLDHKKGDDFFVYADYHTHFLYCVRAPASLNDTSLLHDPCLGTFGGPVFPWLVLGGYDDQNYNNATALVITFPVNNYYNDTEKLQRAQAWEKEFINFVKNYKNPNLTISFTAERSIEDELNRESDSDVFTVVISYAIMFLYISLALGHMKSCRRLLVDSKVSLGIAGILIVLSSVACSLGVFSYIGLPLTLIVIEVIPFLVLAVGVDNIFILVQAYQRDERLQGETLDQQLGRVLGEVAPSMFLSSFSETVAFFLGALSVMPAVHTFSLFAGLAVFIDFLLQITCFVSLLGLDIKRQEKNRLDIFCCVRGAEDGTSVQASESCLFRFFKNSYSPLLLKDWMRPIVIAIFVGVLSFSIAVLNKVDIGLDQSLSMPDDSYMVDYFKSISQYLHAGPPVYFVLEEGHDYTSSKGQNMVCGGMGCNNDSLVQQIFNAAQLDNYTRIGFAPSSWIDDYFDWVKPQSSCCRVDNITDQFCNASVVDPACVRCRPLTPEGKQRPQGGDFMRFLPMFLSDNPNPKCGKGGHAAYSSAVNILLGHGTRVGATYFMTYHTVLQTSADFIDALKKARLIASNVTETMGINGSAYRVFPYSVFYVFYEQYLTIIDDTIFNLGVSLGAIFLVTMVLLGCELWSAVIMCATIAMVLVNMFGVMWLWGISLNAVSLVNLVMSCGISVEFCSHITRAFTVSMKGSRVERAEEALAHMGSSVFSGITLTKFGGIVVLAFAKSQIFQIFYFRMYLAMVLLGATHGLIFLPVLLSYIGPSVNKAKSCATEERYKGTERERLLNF

SMILES: c1ccc2c(CN3CCNCC3)cccc2c1 [1-(1-naphthylmethyl)piperazine]
- identification as inhibitor of NPC1L1 (NPC1L1 [1]): NPC1L1 inhibitors have been identified

SMILES: CC(=O)C1=C(Nc2ccccc2C)CCC1=O [2-acetyl-3-[(2-methylphenyl)amino]-2-cyclopenten-1-one]
- identification as inhibitor of NPC1L1 (NPC1L1 [1]): NPC1L1 inhibitors have been identified
- signal of NPC1L1 promoter upregulation (inhibition of the NPC1L1 protein) (NPC1L1 [2]): positive signal

SMILES: CC(Nc1ccccc1O)=C1C(=O)CSC1=O [3 {1-[(2-hydroxyphenyl)amino]ethylidene}-2,4(3H, 5H)-thiophenedione]
- identification as inhibitor of NPC1L1 (NPC1L1 [1]): NPC1L1 inhibitors have been identified
- signal of NPC1L1 promoter upregulation (inhibition of the NPC1L1 protein) (NPC1L1 [2]): positive signal

SMILES: COc1ccccc1NC1=C(C)C(=O)CC1 [3-[(2-methoxyphenyl)amino]-2-methyl-2-cyclopenten-1-one]
- identification as inhibitor of NPC1L1 (NPC1L1 [1]): NPC1L1 inhibitors have been identified

SMILES: COc1ccc(NC2=C(C)C(=O)CC2)cc1 [3-[(4-methoxyphenyl)amino]-2-methyl-2-cyclopenten-1-one]
- identification as inhibitor of NPC1L1 (NPC1L1 [1]): NPC1L1 inhibitors have been identified

SMILES: CC(Nc1ccccc1C)=C1C(=O)CSC1=O [3{1-[(2-methylphenyl)amino]ethylidene}-2,4(3H, 5H)-thiophenedione]
- identification as inhibitor of NPC1L1 (NPC1L1 [1]): NPC1L1 inhibitors have been identified

SMILES: Cl.N#CC1(c2ccccc2)CCNCC1 [#1, 4-Phenyl-4-piperidinecarbonitrile Hydrochloride]
- NPC1 inhibition seen as lysosomal cholesterol build-up (NPC1; hydrochloride): did not demonstrate any NPC1 inhibition
- NPC1 inhibition seen as lysosomal cholesterol build-up (NPC1; listed as 4-cyano-4-phenylpiperidine, Hydrochloride): weaker NPC1 inhibitor
- identification as inhibitor of NPC1L1 (NPC1L1 [1]; Hydrochloride): NPC1L1 inhibitors have been identified; also recorded: identified as an inhibitor of NPC1L1
- signal of NPC1L1 promoter upregulation (inhibition of the NPC1L1 protein) (NPC1L1 [2]): positive signal

SMILES: CC1CCNCC1 [#2, 4-methylpiperidine]
- NPC1 inhibition seen as lysosomal cholesterol build-up (NPC1): weaker NPC1 inhibitor

SMILES: CCCC(=O)C1(c2ccccc2)CCNCC1.Cl [#5, 4-butyryl-4-phenylpiperidine hydrochloride]
- NPC1 inhibition seen as lysosomal cholesterol build-up (NPC1; hydrochloride): distinguishable lysosomes filled with cholesterol
- NPC1 inhibition seen as lysosomal cholesterol build-up (NPC1; listed as 4-butyryl-4-phenylpiperidine, hydrochloride): NPC1 inhibitor

SMILES: CCCCN1CCCCC1C(=O)Nc1c(C)cccc1C (stereo not shown) [#7, 1-Butyl-N(2,6-diemethylphenyl)2 piperidine carboxamide]
- identification as inhibitor of NPC1L1 (NPC1L1 [1]): NPC1L1 inhibitors have been identified
- signal of NPC1L1 promoter upregulation (inhibition of the NPC1L1 protein) (NPC1L1 [2]): positive signal

SMILES: O=C1[C@H](CC[C@H](O)c2ccc(F)cc2)[C@@H](c2ccc(O)cc2)N1c1ccc(F)cc1 [Ezetamibe, reference compound]
- signal of NPC1L1 promoter upregulation (inhibition of the NPC1L1 protein) (NPC1L1 [2]): did not inhibit NPC1L1

SMILES: CC(=O)c1ccc(NC(=O)c2cccs2)cc1 [N-(4-acetylphenyl)-2-thiophenecarboxamide]
- identification as inhibitor of NPC1L1 (NPC1L1 [1]): NPC1L1 inhibitors have been identified
